Measured values as given in patent US8258151B2, “3-aminoimidazo [1,2-A] pyridine derivatives as SGLT inhibitors” (Merck Patent GmbH, priority 2006, dated 2012).

Experiments:
[1] = target: T1, SGLT1 (Homo sapiens, UniProt P13866); assay: SGLT1 activity measurement: 14C-AMG uptake in BHK cells transfected with SGLT1; format: cell-based; details: AMG 50 μM, 37° C., 90 min
T1 construct: expressed in transfected cells
T1 sequence (P13866 1-664): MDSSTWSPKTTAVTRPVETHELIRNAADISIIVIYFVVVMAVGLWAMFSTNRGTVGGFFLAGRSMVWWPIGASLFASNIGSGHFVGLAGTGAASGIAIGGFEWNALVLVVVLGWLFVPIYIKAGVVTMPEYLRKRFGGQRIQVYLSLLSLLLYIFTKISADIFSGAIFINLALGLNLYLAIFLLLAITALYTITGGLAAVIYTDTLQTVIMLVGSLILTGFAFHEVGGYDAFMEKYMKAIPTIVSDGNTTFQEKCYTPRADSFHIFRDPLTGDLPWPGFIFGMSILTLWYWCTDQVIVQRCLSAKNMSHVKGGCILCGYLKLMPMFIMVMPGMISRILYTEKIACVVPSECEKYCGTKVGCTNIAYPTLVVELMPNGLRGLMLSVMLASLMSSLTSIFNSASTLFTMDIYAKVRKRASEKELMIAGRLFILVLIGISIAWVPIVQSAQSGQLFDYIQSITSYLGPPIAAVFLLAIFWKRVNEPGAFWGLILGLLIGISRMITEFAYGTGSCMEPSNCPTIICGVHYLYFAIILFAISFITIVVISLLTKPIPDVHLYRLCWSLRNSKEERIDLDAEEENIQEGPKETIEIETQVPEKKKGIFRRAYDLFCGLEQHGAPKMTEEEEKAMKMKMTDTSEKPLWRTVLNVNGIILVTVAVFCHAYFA
Method in brief: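 BHK21 cells stably transfected with human SLC5A1 were incubated with 14C-AMG (added solution at 50 μM) ± compound for 90 min at 37 °C. The buffer was 140 mM NaCl, HEPES/Tris, pH 7.4. Lysed-cell radioactivity was counted by scintillation, and non-specific uptake was measured in sodium-free sucrose buffer.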

[2] = target: T2, SGLT2 (Homo sapiens, UniProt P31639); assay: SGLT2 activity measurement: 14C-AMG uptake in BHK cells transfected with SGLT2; format: cell-based; details: AMG 2 mM, 37° C., 90 min
T2 construct: expressed in transfected cells
T2 sequence (P31639 1-672): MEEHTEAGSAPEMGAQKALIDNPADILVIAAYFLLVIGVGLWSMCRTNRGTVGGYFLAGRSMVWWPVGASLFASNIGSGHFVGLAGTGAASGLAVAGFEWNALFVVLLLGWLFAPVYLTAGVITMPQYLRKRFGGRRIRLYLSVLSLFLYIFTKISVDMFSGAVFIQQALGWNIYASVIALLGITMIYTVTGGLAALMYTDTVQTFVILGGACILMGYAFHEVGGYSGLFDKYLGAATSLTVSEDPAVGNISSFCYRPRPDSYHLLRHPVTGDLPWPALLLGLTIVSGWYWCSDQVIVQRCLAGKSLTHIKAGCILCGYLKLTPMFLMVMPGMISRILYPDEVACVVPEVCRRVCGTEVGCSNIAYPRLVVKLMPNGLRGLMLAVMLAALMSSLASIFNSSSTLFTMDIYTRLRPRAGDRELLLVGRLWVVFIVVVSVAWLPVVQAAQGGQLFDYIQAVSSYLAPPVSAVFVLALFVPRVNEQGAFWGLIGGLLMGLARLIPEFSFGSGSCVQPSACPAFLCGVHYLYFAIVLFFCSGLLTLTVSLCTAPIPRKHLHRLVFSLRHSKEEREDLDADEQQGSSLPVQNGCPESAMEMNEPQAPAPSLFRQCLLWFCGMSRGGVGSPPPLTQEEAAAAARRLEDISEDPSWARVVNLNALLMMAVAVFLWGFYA
Method in brief: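 BHK21 cells stably expressing human SGLT2 took up 14C-AMG (added as 2 mM solution) ± compound for 90 min at 37 °C in Na+-containing HEPES/Tris buffer, pH 7.4. Uptake was measured by scintillation counting after lysis. Non-specific uptake was defined in sodium-free sucrose buffer.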

Row | SMILES | IC50 [1] [nM] | IC50 [2] [nM]
1 | COc1cc(Cl)c(-c2nc3ccc(F)cn3c2Nc2c(C)cccc2C)c(OCC(N)=O)c1 [Compound A197, 2-[2-(Aminocarbonylmethoxy)-4-methoxy-6-chlorophenyl]-3-(2,6-dimethylphenylamino)-6-fluoroimidazo[1,2-a]pyridine] | > 10000 | 10 to 1000
2 | COc1cc(OC)c(-c2nc3ccc(F)cn3c2Nc2c(C)cccc2C)c(OCC(N)=O)c1 [Compound A199, 2-[2-(Aminocarbonylmethoxy)-4-methoxy-6-methoxyphenyl]-3-(2,6-dimethylphenylamino)-6-fluoroimidazo[1,2-a]pyridine] | > 10000 | 10 to 1000
3 | COc1cc(OC)c(-c2nc3ccc(F)cn3c2Nc2c(C)cc(F)cc2C)c(OCC(N)=O)c1 [Compound A200, 2-[2-(Aminocarbonylmethoxy)-4-methoxy-6-methoxyphenyl]-3-(2,6-dimethyl-4-fluorophenyl-amino)-6-fluoroimidazo[1,2-a]pyridine] | > 10000 | 10 to 1000
4 | COc1cc(C)c(-c2nc3ccc(F)cn3c2Nc2c(C)cccc2C)c(OCC(N)=O)c1OC [Compound A201, 2-[2-(Aminocarbonylmethoxy)-3,4-dimethoxy-6-methylphenyl]-3-(2,6-dimethylphenylamino)-6-fluoroimidazo[1,2-a]pyridine] | > 10000 | 1000 to 10000
5 | COc1cc(C)c(-c2nc3cccc(C)n3c2Nc2c(C)cccc2C)c(OCC(N)=O)c1 [Compound A206, 2-[2-(Aminocarbonylmethoxy)-4-methoxy-6-methylphenyl]-3-(2,6-dimethylphenylamino)-5-methylimidazo[1,2-a]pyridine] | > 10000 | 10 to 1000
6 | COc1cc(C)c(-c2nc3cccc(N)n3c2Nc2c(C)cccc2C)c(OCC(N)=O)c1 [Compound A207, 2-[2-(Aminocarbonylmethoxy)-4-methoxy-6-methylphenyl]-3-(2,6-dimethylphenylamino)-5-aminoimidazo[1,2-a]pyridine] | > 10000 | 10 to 1000
7 | Cc1cccc(C)c1Nc1c(-c2c(C)cc(OCC(O)CO)cc2OCC(N)=O)nc2ccc(F)cn12 (stereo not shown) [Compound A208, 2-[2-(Aminocarbonylmethoxy)-4-(2,3-dihydroxy-propoxy)-6-methylphenyl]-3-(2,6-dimethylphenyl-amino)-6-fluoroimidazo[1,2-a]pyridine] | > 10000 | 10 to 1000
8 | Cc1cccc(C)c1Nc1c(-c2ccccc2OCC(N)=O)nc2ccc(C#N)cn12 [Compound A209, 2-[2-(Aminocarbonylmethoxy)phenyl]-3-(2,6-dimethylphenylamino)-6-cyanoimidazo[1,2-a]-pyridine] | > 10000 | 1000 to 10000
9 | Cc1cccc(C)c1Nc1c(-c2ccccc2OCC(N)=O)nc2cc(C#N)ccn12 [Compound A210, 2-[2-(Aminocarbonylmethoxy)phenyl]-3-(2,6-dimethylphenylamino)-7-cyanoimidazo[1,2-a]-pyridine] | > 10000 | > 10000
10 | COc1ccc(-c2nc3ccc(F)cn3c2Nc2c(C)cccc2C)c(OCC(N)=O)c1 [Compound A211, 2-[2-(Aminocarbonylmethoxy)-4-methoxy-phenyl]-3-(2,6-dimethylphenylamino)-6-fluoro-imidazo[1,2-a]pyridine] | > 10000 | 10 to 1000
11 | COc1ccc(-c2nc3ccc(F)cn3c2Nc2c(C)cc(F)cc2C)c(OCC(N)=O)c1 [Compound A212, 2-[2-(Aminocarbonylmethoxy)-4-methoxy-phenyl]-3-(2,6-dimethyl-4-fluorophenylamino)-6-fluoroimidazo[1,2-a]pyridine] | > 10000 | 10 to 1000
12 | Cc1cccc(C)c1Nc1c(-c2c(C)cc(OS(=O)(=O)N(C)C)cc2OCC(N)=O)nc2ccc(F)cn12 [Compound A213] | > 10000 | 10 to 1000
13 | COc1cc(C)c(-c2nc3ccc(F)cn3c2Nc2c(C)cccc2OC)c(OCC(N)=O)c1 [Compound A214, 2-[2-(Aminocarbonylmethoxy)-4-methoxy-6-methylphenyl]-3-(2-methoxy-6-methylphenyl-amino)-6-fluoroimidazo[1,2-a]pyridine] | > 10000 | 10 to 1000
14 | CCc1cc(OC)cc(OCC(N)=O)c1-c1nc2ccc(F)cn2c1Nc1c(C)cccc1OC [Compound A215, 2-[2-(Aminocarbonylmethoxy)-4-methoxy-6-ethylphenyl]-3-(2-methoxy-6-methylphenyl-amino)-6-fluoroimidazo[1,2-a]pyridine] | > 10000 | 10 to 1000
15 | CCc1cc(OCC(O)CO)cc(OCC(N)=O)c1-c1nc2ccc(F)cn2c1Nc1c(C)cccc1C (stereo not shown) [Compound A216, 2-[2-(Aminocarbonylmethoxy)-4-(2,3-dihydroxy-propoxy)-6-ethylphenyl]-3-(2,6-dimethylphenyl-amino)-6-fluoroimidazo[1,2-a]pyridine] | > 10000 | 10 to 1000

Other lines, results leading:

Row | IC50 [1] [nM] | IC50 [2] [nM] | SMILES
16 | > 10000 | 10 to 1000 | CCc1cc(OCCO)cc(OCC(N)=O)c1-c1nc2ccc(F)cn2c1Nc1c(C)cccc1C [Compound A195, 2-[2-(Aminocarbonylmethoxy)-4-(2-hydroxy-ethoxy)-6-ethylphenyl]-3-(2,6-dimethylphenyl-amino)-6-fluoroimidazo[1,2-a]pyridine]
17 | > 10000 | 10 to 1000 | CCOc1cc(CC)c(-c2nc3ccc(F)cn3c2Nc2c(C)cccc2C)c(OCC(N)=O)c1 [Compound A196, 2-[2-(Aminocarbonylmethoxy)-4-ethoxy-6-ethyl-phenyl]-3-(2,6-dimethylphenylamino)-6-fluoro-imidazo[1,2-a]pyridine]
18 | 1000 to 10000 | 10 to 1000 | CCc1cc(OC2COC(=O)O2)cc(OCC(N)=O)c1-c1nc2ccc(F)cn2c1Nc1c(C)cccc1C (stereo not shown) [Compound A198, 2-[2-(Aminocarbonylmethoxy)-4-(2-oxo-1,3-dioxolan-4-yloxy)-6-ethylphenyl]-3-(2,6-dimethyl-phenylamino)-6-fluoroimidazo[1,2-a]pyridine]
19 | 1000 to 10000 | 10 to 1000 | CCc1cc(OC)cc(OCC(N)=O)c1-c1nc2ccccn2c1Nc1c(C)cccc1C [Compound A202, 2-[2-(Aminocarbonylmethoxy)-4-methoxy-6-ethylphenyl]-3-(2,6-dimethylphenylamino)-imidazo[1,2-a]pyridine]
20 | 1000 to 10000 | 10 to 1000 | CCc1cc(OC)cc(OCC(N)=O)c1-c1nc2ccccn2c1Nc1c(C)cc(F)cc1C [Compound A203, 2-[2-(Aminocarbonylmethoxy)-4-methoxy-6-ethylphenyl]-3-(2,6-dimethyl-4-fluorophenyl-amino)imidazo[1,2-a]pyridine]
21 | 1000 to 10000 | 10 to 1000 | COc1cc(C)c(-c2nc3ccc(F)cn3c2Nc2c(C)cccc2C)c(OCC(N)=O)c1 [Compound A204, 2-[2-(Aminocarbonylmethoxy)-4-methoxy-6-methylphenyl]-3-(2,6-dimethylphenylamino)-6-fluoroimidazo[1,2-a]pyridine]
22 | 1000 to 10000 | 10 to 1000 | COc1cc(C)c(-c2nc3ccc(F)cn3c2Nc2c(Cl)cccc2Cl)c(OCC(N)=O)c1 [Compound A205, 2-[2-(Aminocarbonylmethoxy)-4-methoxy-6-methylphenyl]-3-(2,6-dichlorophenylamino)-6-fluoroimidazo[1,2-a]pyridine]
23 | 1000 to 10000 | 10 to 1000 | CCc1cc(OC)cc(OCC(N)=O)c1-c1nc2ccc(F)cn2c1Nc1c(C)ccc(Cl)c1C [Compound A217, 2-[2-(Aminocarbonylmethoxy)-4-methoxy-6-ethylphenyl]-3-(3-chloro-2,6-dimethylphenyl-amino)-6-fluoroimidazo[1,2-a]pyridine]
